Measured values from US9598463B2, “Mucin hypersecretion inhibitors and methods of use” (BIOMARCK PHARMACEUTICALS, LTD., priority 2005, dated 2017).
Marks after values point to notes of the source that are not given here. Where a SMILES comes first, the peptide text is derived from it. The star is where a group is joined. Myristoyl = CCCCCCCCCCCCCC(=O)*

Legend:
[1] = Qualitative solubility of test peptides in 0.5 N saline; assay type: physicochemical; conditions: pH 6.5, 20° C. (table title)
How it was run: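 Weighed peptide (1 to 5 mg) titrated with 25 μL aliquots of 0.5 N saline, pH 6.5, at 25° C until dissolution judged visually. Solubility calculated from volume needed; complete dissolution in first aliquot reported as greater than, non-dissolution as less than, the calculated value.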

[2] = test system: HBE1 cells; assay: PMA-induced mucin hypersecretion in human bronchial epithelial cells (air/liquid interface, MUC5A ELISA); assay type: cell-based; conditions: for Block of PMA-induced increase in mucin secretion: pretreatment with 25 μM peptide
Experimental: HBE1 is a papilloma virus-transformed human bronchial epithelial cell line capable of mucin secretion when cultured in air/liquid interface. HBE1 cells were cultured in the air/liquid interface as described previously (Li et al, J. Biol. Chem., volume 276, pp 40982-40990, 2001). Briefly, HBE1 cells were cultured in air/liquid interface by seeding an appropriate number of cells in 12-well Transwell clear culture inserts (Costar, Cambridge, Mass.) that were thinly coated with rat tail collagen, type I (Collaborative Biomedical, Bedford, Mass.). Cells were initially cultured submerged in medium in a humidified 95% air, 5% CO2 environment for 5-7 days until nearly confluent. At that time, the air/liquid interface was created by removing the apical medium and feeding cells basalaterally. Medium was renewed daily thereafter. Cells were cultured for an additional 14 days to allow full differentiation. The accumulated mucin at the apical surface of the cells was removed by washing with phosphate-buffered saline, pH 7.2. To collect the baseline mucin secretion, cells were incubated for 30 min with medium alone and secreted mucin in the apical medium was collected, and quantitated by ELISA. To determine the mucin hypersecretion induced by a mucin secretagogue, cells were exposed to medium containing 0.5 μM phorbol myristate acetate, (PMA) for 30 min. and mucin was collected and quantitated by ELISA. […] Six wells were used for each test peptides and for each control. Secreted mucin in the apical medium was collected and quantitated by sandwich ELISA method using alkaline phosphatase-conjugated mucin (MUC5A) specific antibody (Zymed Laboratories, San Francisco, Calif.).

[3] = test system: methacholine-induced mucin hypersecretion; assay: Methacholine-induced mucin hypersecretion in ovalbumin-sensitized mouse model of asthma, BAL mucin ELISA (Balb/C mice); assay type: in vivo; conditions: for Mucin Secretion % control: peptides at 100 μM; for Mucin Secretion % of control: Table IV, peptide 100 μM
How it was run: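 BP2 or Balb/C mice immunized s.c. twice weekly with 1 μg ovalbumin, aerosol ovalbumin challenge after 14 days, then aerosolized methacholine 72 h later. Anti-MUC5AC ELISA on cell-free BAL, minus non-immune antibody signal, normalized to Bradford protein; 6 mice per group.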

[4] = test system: methacholine-induced mucin hypersecretion; assay: Methacholine-induced mucin hypersecretion in ovalbumin-sensitized mouse model of asthma, BAL mucin ELISA (BP2 mice); assay type: in vivo
Text: (§1) Experiments were designed to test whether or not the MANS peptide and other test peptides related thereto inhibit hypersecretion of mucin in murine airway in vivo. The ovalbumin-sensitized mouse model of allergic inflammation and asthma used in these studies was as described by Singer et al. (2004), supra. As a negative control, a control peptide containing an N-terminal myristoyl group and the same amino acids as MANS peptide but arranged in random order (i.e., the random N-terminal sequence, RNS, myristoyl-peptide 232) was tested alongside the proposed active peptides. BP2 mice, aged 6-8 wks, were immunized subcutaneously twice at weekly intervals with 1 μg of ovalbumin. After 14 days of sensitization, the animals were exposed to aerosolized ovalbumin, which causes a pronounced goblet cell hyperplasia after 72 hours. At the 72 hr time point, the secretagogue, methacholine ([…]) was delivered using a Buxco system nebulizer providing a fine aerosol for 90 seconds. Fifteen min prior to the secretagogue challenge, 50 μL of the test peptide, at 3 different concentrations (10 μM, 100 μM, or 140 μM), was administered by intratracheal route. The RNS peptide was tested at the highest dose level only (50 μL of 140 μM solution). […] Each experiment was carried out in 6 mice per point, and each set of experiments was repeated 3 times. To test strain-to-strain variations, the above experiment was repeated in Balb/C mice under similar protocol. Both stimulated and unstimulated mucin secretion, in mice treated with […] sodium acetate (data not shown), were identical to saline control. Following the methacholine challenge, the animals were sacrificed and bronchoalveolar lavage (BAL) performed on 6 animals per group for analysis of secreted mucin.
(§2) Mice were sacrificed by cervical dislocation, followed by rapid exposure of the trachea and insertion of a cannula through a small incision. Bronchoalveolar lavage (BAL) fluid was collected with 0.5 ml followed by 3×1 ml PBS containing PMSF (5 mM), EDTA (5 mM), and DTT (5 mM). BAL fluid was separated into cell-free and cell fractions via brief centrifugation prior to any analyses being performed. The cell-free supernatants were analyzed for the presence of mucin via an ELISA method using anti-mucin antibodies shown to react with mouse mucin. Specifically, a mouse anti-MUC5AC antibody that recognizes the carbohydrate portion of secreted mucin was used in these assays. Data generated from each BAL sample were normalized to total protein as determined by Bradford assay. Mucin content was expressed as the value obtained with the anti-mucin antibody minus that obtained with the non-immune control antibody. All ELISA data were statistically examined using a one-way ANOVA.

[5] = test system: methacholine-induced mucin hypersecretion; assay: Duration of action of test peptides in a murine model of asthma; assay type: in vivo; conditions: Balb/C mice
Text: as §1, §2
Experiments were designed to determine the duration of action of test peptides in a murine model of asthma. As described in Method 1A, Balb/C mice were immunized with ovalbumin. After 14 days, the animals were challenged with aerosolized ovalbumin. After 72 hours the secretagogue, methacholine was delivered by aerosolization. The test peptides ([…] of 100 µM solution) were administered by intratracheal route 30 min, 60 min, or 120 min prior to methacholine challenge. The animals were sacrificed and BAL performed for analysis of secreted mucin The results of this experiment are given in Table VI.

[6] = test system: nasal mucus secretion; assay: Mucus secretion in upper respiratory tract of primates (nasal lavage, ELISA); assay type: in vivo; conditions: rhesus monkeys; 2.0 mL of 140 μM solution in right nostril; nasal lavage 1 hour after treatment
Text: The purpose of the experiment was to determine the ability of MANS peptide to inhibit mucus secretion in the upper respiratory tract of healthy adult rhesus monkeys. The test used is a standard method for evaluation of nasal secretory activity, and non-human primates typically provide a good correlation to activity in man.
A total of 17 healthy young adult male rhesus monkeys without any prior history of rhinitis were used for the experiment. None of the monkeys had rhinitis before or after the study. The nasal mucus secretion of each monkey was measured in its left nostril prior to any treatment. This value is considered 100% mucus secretion. The monkeys were then randomly divided into the following 4 groups: • Group 1: Normal saline, control (n=3); • Group 2: Sodium acetate, solvent control (n=4); • Group 3: RNS peptide, negative control (n=5); and • Group 4: MANS peptide, test peptide (n=5).
Saline was placed in the left nostril of all 17 animals prior to any treatment. The right nostrils were treated with 2.0 mL of either saline, sodium acetate, RNS peptide or the MANS peptide. Thus, each animal had its own internal control. Nasal lavage was performed on both nostrils of each animal 1 hour after the treatment with the test articles. All lavages were immediately frozen at −80° C. and analyzed for mucus content by ELISA. […]

[7] = Solubility in sodium acetate, pH 7; assay type: physicochemical; conditions: 120 min sodium acetate, pH 7 (so in the source)
[8] = Table II, 50 μL intratracheal 15 min before methacholine
[9] = peptide intratracheal 30 min prior to methacholine challenge
[10] = peptide intratracheal 60 min prior to methacholine challenge
[11] = peptide intratracheal 120 min prior to methacholine challenge

Row | solubility [1] | Solubility in sodium acetate [7] | Structure (SMILES) | Inhibitory effect on PMA-induced increase in mucin secretion ([2]; peptide concentration not given, 0.5 μM PMA) | Mucin Secretion % control [3, 8] | Mucin Secretion % control ([3]; Table III) | Mucin Secretion % of control [3] | Mucin Secretion % of control ([4]; peptide 100 μM) | Mucin Secretion % of control ([4]; peptide 140 μM) | Duration of action, mucin secretion (% of Control) [5, 9] | Duration of action, mucin secretion (% of Control) [5, 10] | Duration of action, mucin secretion (% of Control) [5, 11] | Inhibition of mucus secretion [6] | Mucin secretion level below the unstimulated medium control ([2]; 25 μM peptide, then 0.5 μM PMA) | Block of PMA-induced increase in mucin secretion ([2]; then 0.5 μM PMA) | Mucin Secretion % of control ([4]; peptide 10 μM)
1 | > 15 mg/mL | freely soluble | CCCCCCCCCCCCCC(=O)NCC(=O)N[C@H](C(=O)N[C@@H](C)C(=O)N1CCC[C@H]1C(=O)N[C@@H](C)C(=O)N[C@@H](C)C(=O)N[C@@H](CCC(=O)O)C(=O)NCC(=O)N[C@@H](C)C(=O)NCC(=O)N[C@@H](C)C(=O)N[C@@H](CCC(=O)O)C(=O)N[C@H](C(=O)N[C@@H](CCCCN)C(=O)N[C@@H](CCCNC(=N)N)C(=O)N[C@@H](C)C(=O)N[C@@H](CO)C(=O)N[C@@H](C)C(=O)N[C@@H](CCC(=O)O)C(=O)N[C@@H](C)C(=O)N[C@@H](CCCCN)C(=O)N[C@@H](CCC(N)=O)C(=O)N[C@@H](C)C(=O)N[C@@H](Cc1ccccc1)C(=O)O)C(C)C)[C@@H](C)O [myr-peptide 232, reference compound] (Myristoyl-GTAPAAEGAGAEVKRASAEAKQAF-OH) | – | 96 % control | 81** % control | 108 % of control | 100 % of Control | 100 % of Control | 100 % of Control | 100 % of Control | 100 % of Control | did not have any effect | – | – | –
2 | > 200 mg/mL | – | CC(=O)N[C@@H](C)C(=O)N[C@@H](CCCCN)C(=O)NCC(=O)N[C@@H](CCC(=O)O)C(=O)O [Ac-peptide 219] (Ac-AKGE-OH) | – | – | – | – | – | – | – | – | – | – | 20% | 100% | –
3 | < 5 mg/mL | freely soluble | CCCCCCCCCCCCCC(=O)NCC(=O)N[C@@H](C)C(=O)N[C@@H](CCC(N)=O)C(=O)N[C@@H](Cc1ccccc1)C(=O)N[C@@H](CO)C(=O)N[C@@H](CCCCN)C(=O)N[C@H](C(=O)N[C@@H](C)C(=O)N[C@@H](C)C(=O)N[C@@H](CCCCN)C(=O)NCC(=O)N[C@@H](CCC(=O)O)C(=O)N[C@@H](C)C(=O)N[C@@H](C)C(=O)N[C@@H](C)C(=O)N[C@@H](CCC(=O)O)C(=O)N[C@@H](CCCNC(=N)N)C(=O)N1CCC[C@H]1C(=O)NCC(=O)N[C@@H](CCC(=O)O)C(=O)N[C@@H](C)C(=O)N[C@@H](C)C(=O)N[C@H](C(=O)N[C@@H](C)C(=O)O)C(C)C)[C@@H](C)O [myr-peptide 1, reference compound] (Myristoyl-GAQFSKTAAKGEAAAERPGEAAVA-OH) | – | 33.8 % control | 40 % control | 29** % of control | 12 % of Control | 8 % of Control | 7 % of Control | 44 % of Control | 50 % of Control | ~75% | – | 100% | 35 % of Control

Row | Structure (SMILES) | solubility [1] | Solubility in sodium acetate [7] | Inhibitory effect on PMA-induced increase in mucin secretion ([2]; peptide concentration not given, 0.5 μM PMA) | Mucin Secretion % control [3, 8] | Mucin Secretion % control ([3]; Table III) | Mucin Secretion % of control [3] | Mucin Secretion % of control ([4]; peptide 100 μM) | Mucin Secretion % of control ([4]; peptide 140 μM) | Duration of action, mucin secretion (% of Control) [5, 9] | Duration of action, mucin secretion (% of Control) [5, 10] | Duration of action, mucin secretion (% of Control) [5, 11] | Inhibition of mucus secretion [6] | Mucin secretion level below the unstimulated medium control ([2]; 25 μM peptide, then 0.5 μM PMA) | Block of PMA-induced increase in mucin secretion ([2]; then 0.5 μM PMA) | Mucin Secretion % of control ([4]; peptide 10 μM)
4 | CC(=O)N[C@@H](C)C(=O)N[C@@H](C)C(=O)NCC(=O)N[C@@H](CCC(=O)O)C(=O)O [Ac-peptide 251] (Ac-AAGE-OH) | > 200 mg/mL | – | 6% | – | – | – | – | – | – | – | – | – | – | – | –
